Measured values from publication PMC5520057, “Modulation of nongenomic activation of PI3K signalling by tetramerization of N-terminally-cleaved RXRα” (Nature Communications, 2017).

Tests used:
tRXRα/R316E = assay: BS3 crosslinking, tRXRα/R316E; type: cell-based; settings: MCF-7 cells, 9-cis-RA (10^−7 M) or K-80003 (5 × 10^−6 M) for 6 h
Protocol: Cell lysates were then prepared and incubated with bis[sulfosuccinimidyl] suberate (BS3, Pierce) dissolved in dimethyl sulfoxide to a final concentration of 1 mM. The reactions were stopped with protein gel loading buffer. Samples were resolved by SDS/PAGE in 8% acrylamide gels and protein bands were visualized by western blotting.

RXRα-LBD [1] = target: T1, RXRα-LBD (Homo sapiens, UniProt P19793); assay: Crystal structure of RXRα-LBD complex; type: binding; settings: crystal structure at 2.6 Å, PDB 5TBP
T1 construct: The human RXRα LBD (residues Thr223 to Thr462); made in house; host or cells: Escherichia coli BL21
T1 sequence (P19793 223-462): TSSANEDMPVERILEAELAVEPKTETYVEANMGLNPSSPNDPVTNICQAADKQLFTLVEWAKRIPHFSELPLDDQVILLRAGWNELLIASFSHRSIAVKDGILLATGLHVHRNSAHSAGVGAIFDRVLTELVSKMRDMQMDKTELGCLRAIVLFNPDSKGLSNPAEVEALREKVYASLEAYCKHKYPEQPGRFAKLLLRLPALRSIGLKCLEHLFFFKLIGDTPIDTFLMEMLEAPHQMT
Protocol: (§1) The human RXRα LBD (residues Thr223 to Thr462) cloned as an N-terminal histidine-tagged fusion protein in pET15b expression vector was expressed in Escherichia coli BL21 strain (Stratagene). After sonication, cell extract was incubated with the His60 Ni Superflow resin, and His-tagged RXRα-LBD-resin complexes were washed, eluted and concentrated to 5 mg ml^−1 for subsequent trails. For crystallization experiment, bovine thrombin (Sigma) was used to cleave the His tag from the purified His-tagged RXRα-LBD. The resulting His tag was removed on the Resource-Q column (GE) using 0.1–1 M NaCl gradient and the Tris-Cl pH 8 buffer. RXRα-LDB was further purified using gel filtration on a Superdex 200 2660 column (GE) pre-equilibrated with the 75 mM NaCl, 20 mM Tris-Cl buffer (pH 8).
Crystallization conditions were initially determined using the sitting-drop vapor-diffusion method and the crystallization screens Index and PEG-Ion solutions from Hampton Research. Final crystals were obtained by cocrystallizing the protein and the ligand. The protein-ligand complex contained 0.35 mM of RXRα-LBD, 0.5–0.7 mM of a ligand, 1% DMSO, 100 mM NaCl and 20 mM Tris-Cl buffer (pH 7.6). 0.2 μl of the protein-ligand complex was mixed with 0.2 μl of the well solution (20% […] and 0.2 M Na Acetate) and incubated at 20 °C. Crystals appeared in 5–10 days and grew into 0.2 × 0.1 × 0.1 mm prisms. The crystals were flash-cooled in mother liquor containing 1.5 mM of K-80003 and 20% glycerol as a cryoprotectant. Diffraction data was collected from the cryo-cooled crystal (100 K) on an in-house diffractometer (Rigaku X-ray generator with a rotating anode, VariMax optic and R-AXIS HTC detector). Data was processed using the programme iMOSFLM, part of the CCP4 suite. The b-factor of the data set according to the Wilson plot was 60 Å^2.
The crystal structures were determined using the molecular replacement program Phaser[76] with pdb entry 4N8R as an initial model. Coot[77] and the program suite Phenix[78] were used for the model rebuilding and refinement. […]

PI3K signalling = test system: PI3K signalling; design: method as in PMID 20541701; settings: cited from earlier work
MMTV-PyMT mammary tumour = assay: MMTV-PyMT tumours, western blotting; type: in vivo, MMTV-PyMT mice; settings: diet with K-80003 (100 mg kg^−1) for 4 weeks
Protocol: Proteins or cell lysates were electrophoresed by SDS-PAGE gel and transferred to polyvinylidene difluoride (PVDF) membrane. The membranes were blocked with 5% skimmed milk in TBST (50 mM Tris-HCl (pH 7.4), 150 mM NaCl and 0.1% Tween20) for 1 h, then incubated with primary antibodies and secondary antibodies and detected using ECL system (Thermo). The dilutions of the primary antibodies were anti-RXRα (ΔN197, Santa Cruz) in 1:1,000, anti-PARP (H-250, Santa Cruz) in 1:3,000, anti-p85α (Millipore) in 1:1,000, anti-p-AKT (D9E, Cell Signaling Technology) in 1:1000, anti-AKT1/2/3 (H-136, Santa Cruz) in 1:1,000, anti-β-actin (Sigma) in 1:5,000, anti-c-myc (9E10, Santa Cruz) in 1:3,000, anti-HA (F-7, Santa Cruz) in 1:3,000, anti-Flag (F1804, Sigma) in 1:3,000. Images of all uncropped western blots can be found in Supplementary Figs 10–14.
For nude mice xenograft study, Myc-RXRα and Myc-tRXRα cloned into pcdna3.0 vector were stably transfected into MCF-7 cells, and the resulting stable clones and control clone (2 × 10^6 cells in 100 μl) were injected subcutaneously into nude mice (BALB/c, SPF grade, 16–18 g, 4–5-week old). For drug treatment, mice were intraperitoneally injected (i.p.) daily with K-80003 (20 mg kg^−1) diluted in Tween-80 or vehicle (tween-80). Body weight and tumour size were measured every 2 days. […]

RXRα-LBD [2] = target: T1, RXRα-LBD; assay: Gel filtration chromatography, RXRα-LBD; type: biochemical; settings: HiLoad 16/600 Superdex 200 pg, 50 mM Tris-Cl (pH 7.4), 200 mM NaCl, 1 ml min^−1; 2 h incubation; one of three similar experiments
Protocol: as §1

CC1=C(CC(=O)O)c2cc(F)ccc2/C1=C\c1ccc(C(C)C)cc1 [K-80003]
oligomeric state of tRXRα/R316E (tRXRα/R316E): strong tetrameric species of tRXRα/R316E but not tRXRα/F313A independent of the presence of 9-cis-RA or K-80003
binding mode (RXRα-LBD [1]): ‘3-pronged’ binding mode
molecules bound per tetramer (RXRα-LBD [1]): six molecules of K-80003-bound per tetramer
molecules bound per interfacial cavity (RXRα-LBD [1]; A1/B2 or A2/B1 cavity): three molecules per A1/B2 or A2/B1 interfacial cavity
inhibition of activation of PI3K signalling (PI3K signalling): inhibits its interaction with p85α and activation of PI3K signalling
PARP cleavage in PyMT tumours (MMTV-PyMT mammary tumour): induction of PARP cleavage
cyclin D expression in PyMT tumours (MMTV-PyMT mammary tumour): inhibition of cyclin D expression
oligomeric state of RXRα-LBD by gel filtration (RXRα-LBD [2]): mainly existed as a tetramer
